Assay results as given in patent US20140303092A1 (CHIMERIX, INC., priority 2011, published 2014).

Experiment: Study HDP-CDV-201: safety and tolerability (adverse events, laboratory abnormalities, discontinuations)
Format: in vivo, human (adult allogeneic HSCT recipients)
Procedure: Clinical Studies of HDP-CDV were performed and described in detail in the following Examples. For example, HDP-CDV-201 is a placebo-controlled, dose-escalating trial in HSCT CMV (R+) recipients, evaluating the ability of HDP-CDV to prevent or control CMV infection was carried out. Five cohorts were established in which participants or subjects received either placebo or the HDP-CDV orally, in doses ranging from 40 mg weekly (QW) to 200 mg twice weekly (BIW). Subjects who were post-HSCT were enrolled at the time of engraftment and randomized to HDP-CDV or placebo (3 to 1 ratio) and received blinded therapy until approximately 100 day post-transplantation. HDP-CDV doses were 40 mg QW, 100 mg QW, 200 mg QW, 200 mg BIW and 100 mg BIW. Escalation to the next dose was decided by the data monitoring committee after review of the safety data from the previous Cohort. Subjects who developed CMV disease or CMV infection requiring pre-emptive therapy with local standard of care were discontinued from blinded therapy and followed for 4 weeks. Subjects who completed treatment with blinded therapy were followed for 8 weeks post-therapy.
Data from Study HDP-CDV-201 also provided characterization of the safety and tolerability profile of HDP-CDV when administered for the prevention or control of CMV infection in high risk (R^+) post-HSCT adult subjects.
The Safety population (SAFETY) included all randomized subjects who took at least one dose of study treatment. This population was used to summarize safety outcomes based on the treatment actually received, in cases where a subject was treated contrary to the randomization schedule.
The safety and tolerability profile of HDP-CDV, including subject demographics and Baseline characteristics; the AE profile; and laboratory abnormalities of interest were analyzed in the cohorts followed in this investigation.
Subjects completing the treatment period received a full course of study medication; those completing the entire study attended visits through 8 weeks of follow up. Subjects who discontinued treatment may have done so for protocol specified reasons (e.g. development of clinically significant CMV infection requiring preemptive treatment with excluded anti-CMV medications) or for other reasons (e.g., withdrawal, adverse events, loss to follow-up). The disposition of subjects in Study HDP-CDV-201 during the double-blind, placebo-controlled treatment period (through Week 11) is listed by dosing Cohort in TABLE 23.
Adverse events were examined by severity to ensure that all safety signals were identified in this study population. Because of the frequency of events in HSCT recipients, particular attention was given to evaluation of Grade 3 […], 4 (severe), and 5 (fatal) adverse events.
Only those preferred terms for which at least one Grade 3 or higher event was experienced in any treatment group are listed. Cytomegalovirus-related AEs are excluded from this analysis.
HDP-CDV is a lipid conjugate of CDV. Because CDV is known to have adverse effects on renal function and bone marrow, decreased GFR and persistent neutropenia were identified as AEs of special interest. Key renal and hematological (TABLE 30) laboratory parameters were measured and listed below by Study HDP-CDV-201 treatment groups. TABLE 30 includes abnormal levels of serum creatinine, neutrophils, platelets, WBCs, and hemoglobin and includes data at Screening and during the treatment period.
A common metric for unit based dosing of medications is by weight (mg/kg). When the distribution of weights was examined for all subjects participating in the study, the median was 78 kg and the lower 25th percentile weight was approximately 65 kg, which translates to a cut-off of ˜3 mg/kg for a 200 mg total weekly dose. Based upon this approach, a cut-off of 3 mg/kg was used to assess the frequency of diarrhea and associated GI AEs reported for the subjects in Cohorts 3 or 4a (TABLE 40).

CCCCCCCCCCCCCCCCOCCCOP(=O)(O)COC(CO)Cn1ccc(N)nc1=O (stereo not drawn) [HDP-CDV]
TEAE Staphylococcal Bacteremia, Grade 4 (200 mg BIW): 0 | TEAE Staphylococcal Bacteremia, Grade 5 (200 mg BIW): 0 | TEAE Thrombocytopenia, Frequency (200 mg BIW): 5 (16.7%) | TEAE Thrombocytopenia, Grade 2 (200 mg BIW): 2 (6.7%) | TEAE Thrombocytopenia, Grade 3 (200 mg BIW): 0 | TEAE Thrombocytopenia, Grade 4 (200 mg BIW): 3 (10.0%) | TEAE Thrombocytopenia, Grade 5 (200 mg BIW): 0 | TEAE Vomiting, Frequency (200 mg BIW): 8 (26.7%) | TEAE Vomiting, Grade 2 (200 mg BIW): 4 (13.3%) | TEAE Vomiting, Grade 3 (200 mg BIW): 0 | TEAE Vomiting, Grade 4 (200 mg BIW): 0 | TEAE Vomiting, Grade 5 (200 mg BIW): 0 | subjects requiring treatment with steroids during the study (200 mg BIW): 83% | proportion of subjects with Grade 3 or higher ALT (>5×ULN) (200 mg BIW (8 of 30)): 27.6% | dose limiting toxicity (200 mg BIW not tolerable): Diarrhea | Subjects Reporting Diarrhea as an AE (200 mg BIW, n = 30): 21 (70.0%) | Discontinuation: Death (200 mg BIW, active treatment period): 3 (10%) Subject n (%) | Discontinuation: Adverse event (200 mg BIW, active treatment period through Week 11): 13 (43.3%) Subject n (%) | TEAE ALT increased, Frequency (200 mg QW): 2 (5.1%) | TEAE ALT increased, Grade 2 (200 mg QW): 1 (2.6%) | TEAE ALT increased, Grade 3 (200 mg QW): 1 (2.6%) | TEAE ALT increased, Grade 4 (200 mg QW): 0 | TEAE ALT increased, Grade 5 (200 mg QW): 0 | TEAE AML, Recurrent, Frequency (200 mg QW): 0 | TEAE AML, Recurrent, Grade 2 (200 mg QW): 0 | TEAE AML, Recurrent, Grade 3 (200 mg QW): 0 | TEAE AML, Recurrent, Grade 4 (200 mg QW): 0 | TEAE AML, Recurrent, Grade 5 (200 mg QW): 0 | TEAE AST increased, Frequency (200 mg QW): 1 (2.6%) | TEAE AST increased, Grade 2 (200 mg QW): 1 (2.6%) | TEAE AST increased, Grade 3 (200 mg QW): 0 | TEAE AST increased, Grade 4 (200 mg QW): 0 | TEAE AST increased, Grade 5 (200 mg QW): 0 | TEAE Abdominal pain, Frequency (200 mg QW): 5 (12.8%) | TEAE Abdominal pain, Grade 2 (200 mg QW): 1 (2.6%) | TEAE Abdominal pain, Grade 3 (200 mg QW): 1 (2.6%) | TEAE Abdominal pain, Grade 4 (200 mg QW): 0 | TEAE Abdominal pain, Grade 5 (200 mg QW): 0 | TEAE Acute GVHD, Frequency (200 mg QW): 13 (33.3%) | TEAE Acute GVHD, Grade 2 (200 mg QW): 5 (12.8%) | TEAE Acute GVHD, Grade 3 (200 mg QW): 4 (10.3%) | TEAE Acute GVHD, Grade 4 (200 mg QW): 2 (5.1%) | TEAE Acute GVHD, Grade 5 (200 mg QW): 1(2.6%) | TEAE Arthralgias, Frequency (200 mg QW): 1 (2.6%) | TEAE Arthralgias, Grade 2 (200 mg QW): 0 | TEAE Arthralgias, Grade 3 (200 mg QW): 0 | TEAE Arthralgias, Grade 4 (200 mg QW): 0 | TEAE Arthralgias, Grade 5 (200 mg QW): 0 | TEAE Back Pain, Frequency (200 mg QW): 2 (5.1%) | TEAE Back Pain, Grade 2 (200 mg QW): 2 (5.1%) | TEAE Back Pain, Grade 3 (200 mg QW): 0 | TEAE Back Pain, Grade 4 (200 mg QW): 0 | TEAE Back Pain, Grade 5 (200 mg QW): 0 | TEAE Decreased appetite, Frequency (200 mg QW): 3 (7.7%) | TEAE Decreased appetite, Grade 2 (200 mg QW): 1 (2.6%) | TEAE Decreased appetite, Grade 3 (200 mg QW): 0 | TEAE Decreased appetite, Grade 4 (200 mg QW): 0 | TEAE Decreased appetite, Grade 5 (200 mg QW): 0 | TEAE Diarrhea, Frequency (200 mg QW): 13 (33.3%) | TEAE Diarrhea, Grade 2 (200 mg QW): 5 (12.8%) | TEAE Diarrhea, Grade 3 (200 mg QW): 2 (5.1%) | TEAE Diarrhea, Grade 4 (200 mg QW): 0 | TEAE Diarrhea, Grade 5 (200 mg QW): 0 | TEAE Fatigue, Frequency (200 mg QW): 5 (12.8%) | TEAE Fatigue, Grade 2 (200 mg QW): 0 | TEAE Fatigue, Grade 3 (200 mg QW): 1 (2.6%) | TEAE Fatigue, Grade 4 (200 mg QW): 0 | TEAE Fatigue, Grade 5 (200 mg QW): 0 | TEAE GGT Increased, Frequency (200 mg QW): 0 | TEAE GGT Increased, Grade 2 (200 mg QW): 0 | TEAE GGT Increased, Grade 3 (200 mg QW): 0 | TEAE GGT Increased, Grade 4 (200 mg QW): 0 | TEAE GGT Increased, Grade 5 (200 mg QW): 0 | TEAE Generalized oedema, Frequency (200 mg QW): 0 | TEAE Generalized oedema, Grade 2 (200 mg QW): 0 | TEAE Generalized oedema, Grade 3 (200 mg QW): 0 | TEAE Generalized oedema, Grade 4 (200 mg QW): 0 | TEAE Generalized oedema, Grade 5 (200 mg QW): 0 | TEAE Hyperbilirubinaemia, Frequency (200 mg QW): 3 (7.7%) | TEAE Hyperbilirubinaemia, Grade 2 (200 mg QW): 1 (2.6%) | TEAE Hyperbilirubinaemia, Grade 3 (200 mg QW): 0 | TEAE Hyperbilirubinaemia, Grade 4 (200 mg QW): 1 (2.6%) | TEAE Hyperbilirubinaemia, Grade 5 (200 mg QW): 0 | TEAE Hyperglycaemia, Frequency (200 mg QW): 1 (2.6%) | TEAE Hyperglycaemia, Grade 2 (200 mg QW): 0 | TEAE Hyperglycaemia, Grade 3 (200 mg QW): 1 (2.6%) | TEAE Hyperglycaemia, Grade 4 (200 mg QW): 0 | TEAE Hyperglycaemia, Grade 5 (200 mg QW): 0 | TEAE Hyperkalemia, Frequency (200 mg QW): 1 (2.6%) | TEAE Hyperkalemia, Grade 2 (200 mg QW): 0 | TEAE Hyperkalemia, Grade 3 (200 mg QW): 0 | TEAE Hyperkalemia, Grade 4 (200 mg QW): 0 | TEAE Hyperkalemia, Grade 5 (200 mg QW): 0 | TEAE Hypocalcaemia, Frequency (200 mg QW): 0 | TEAE Hypocalcaemia, Grade 2 (200 mg QW): 0 | TEAE Hypocalcaemia, Grade 3 (200 mg QW): 0 | TEAE Hypocalcaemia, Grade 4 (200 mg QW): 0 | TEAE Hypocalcaemia, Grade 5 (200 mg QW): 0 | TEAE Hypokalaemia, Frequency (200 mg QW): 5 (12.8%) | TEAE Hypokalaemia, Grade 2 (200 mg QW): 2 (5.1%) | TEAE Hypokalaemia, Grade 3 (200 mg QW): 0 | TEAE Hypokalaemia, Grade 4 (200 mg QW): 0 | TEAE Hypokalaemia, Grade 5 (200 mg QW): 0 | TEAE Hyponatraemia, Frequency (200 mg QW): 7 (17.9%) | TEAE Hyponatraemia, Grade 2 (200 mg QW): 2 (5.1%) | TEAE Hyponatraemia, Grade 3 (200 mg QW): 2 (5.1%) | TEAE Hyponatraemia, Grade 4 (200 mg QW): 0 | TEAE Hyponatraemia, Grade 5 (200 mg QW): 0 | TEAE LFT Abnormal, Frequency (200 mg QW): 2 (5.1%) | TEAE LFT Abnormal, Grade 2 (200 mg QW): 0 | TEAE LFT Abnormal, Grade 3 (200 mg QW): 0
